From PMC9769502 (Microbiology Spectrum, 2022)
Where two headings read alike, the source gives them in different places. No end group written: not given here.

Tests used:
[1] = system: Leishmania donovani axenic amastigotes
Method: We utilized a previously developed high-throughput screening assay using transgenic axenic amastigotes expressing a red fluorescent protein, mCherry. Changes in mCherry fluorescence were normalized to 50 μM miltefosine in order to quantify parasite inhibition ([52]). In total, 5 scaffold 25-mer peptides and 475 synthetic 25-mer peptide variants were screened (Fig. 1). […] The assay was repeated, and the average percent parasite killing was determined.
Axenic amastigotes were differentiated as described previously ([69]).
Axenic amastigotes were differentiated as described previously ([69]); briefly, transgenic L. donovani promastigotes expressing mCherry were differentiated by pH and temperature shifts. Amastigotes were seeded into 96-well plates at 5 × 10^6 cells/mL and incubated for 48 h in the presence of decreasing drug concentrations, starting at 20 μM, along with the appropriate solvent controls. Fluorescence was monitored (587-nm excitation/610-nm emission) over 48 h using a FlexStation 3 benchtop multimode reader (Molecular Devices). […] Thus, changes in mCherry fluorescence were normalized to the 50 μM miltefosine control in order to quantify parasite inhibition. Each assay was performed in triplicate. The IC50 values were calculated by nonlinear regression analysis using GraphPad Prism 9.0 for Windows.

[2] = system: THP-1 macrophages; experiment: Cytotoxicity against THP-1 macrophages (CellTiter-Blue); format: cell-based, human
Method: THP-1 (human acute monocytic leukemia-derived) host macrophages were cultured in RPMI 1640 supplemented with 10% FCS and a penicillin-streptomycin antibiotic solution (10,000 U/mL penicillin, 10,000 μg/mL streptomycin) at 37°C with 5% CO2. THP-1 cells were incubated with 0.25 μM phorbol 12-myristate […] (PMA) for 48 h to differentiate into mature macrophages. Differentiated macrophages were seeded into 96-well plates at 5 × 10^6 cells/mL and incubated for 48 h in the presence of 20 μM antimicrobial peptides along with the appropriate solvent controls. Cell viability assays were conducted using CellTiter-Blue (Promega), based on resazurin reduction. After the 48-h incubation period, CellTiter-Blue reagent was added to cells for 4 h at 37°C, and fluorescence was measured (555-nm excitation/580-nm emission) using a FlexStation 3 benchtop multimode reader (Molecular Devices). Each assay was performed in triplicate. The CC50 values were calculated by nonlinear regression analysis using GraphPad Prism 9.0 for Windows.

[3] = read-out: Axenic amastigotes Mean IC50 ± SD, L. donovani mCherry axenic amastigotes, 48 h, fluorescence normalized to 50 μM miltefosine, highest concentration 20 μM, mean of three replicates
[4] = read-out: Axenic amastigotes Mean IC50 ± SD

## AGKETIRQYLKNEIKKKGRKAWIAW [Syn-safencin-65]
[1]; [3]
  IC50: 1.01 µM
[2]
  THP-1 macrophage CC50: < 20 µM

## AGKETIFQRLKKKIQEKWKRATIAW [Syn-larvacin-43]
[1]; [3]
  IC50: 0.22 µM
[2]
  THP-1 macrophage CC50: < 20 µM

## AWTEKIFNRLKKTINEGKKIAKRAW [Syn-larvacin-40]
[1]; [3]
  IC50: 8.35 µM
[2]
  THP-1 macrophage CC50: < 20 µM

## AGKKTIRQYLKNEIKKKGRKAVIWW [Syn-safencin 82]
[1]; 48 h
  IC50: 0.375 ± 0.1 µM
[2]
  THP-1 macrophage CC50: > 20 µM
[2]; 48 h
  THP-1 macrophage CC50: >20 µM

## AWKKTIRQYLKNEIKKKGRKAVIAW [Syn-safencin-18]
[1]; [3]
  IC50: 7.96 µM
[2]
  THP-1 macrophage CC50: < 20 µM

## AGKKTIRQYLKNKIKKKGRKAWIAW [Syn-safencin-68]
[1]; [3]
  IC50: 0.56 µM
[2]
  THP-1 macrophage CC50: < 20 µM

## AGKETIRQKWKNEIKKKGRKAVIAW [Syn-safencin-39]
[1]; [3]
  IC50: 0.72 µM
[2]
  THP-1 macrophage CC50: < 20 µM

## AGKEKIRKKLKNEWKKKGRKAVIAW [Syn-safencin-48]
[1]; [3]
  IC50: 1.75 µM
[2]
  THP-1 macrophage CC50: < 20 µM

## AGKETIRKYLKNEIKKKGRKAVWAW [Syn-safencin 78]
[1]; 48 h
  IC50: 0.94 ± 0.14 µM
[2]
  THP-1 macrophage CC50: > 20 µM
[2]; 48 h
  THP-1 macrophage CC50: >20 µM

## AGKEKIRQFLKKKIQEGKKRATIAW [Syn-larvacin-76]
[1]; [3]
  IC50: 1.58 µM
[2]
  THP-1 macrophage CC50: < 20 µM

## AGKETIRQFLKKKIQEKGKIAKRAW [Syn-larvacin-94]
[1]; [3]
  IC50: 18.2 µM
[2]
  THP-1 macrophage CC50: < 20 µM

## AGKKTIRQYLKNKIKKKGRKWVIAW [Syn-safencin-60]
[1]; [3]
  IC50: 1.31 µM
[2]
  THP-1 macrophage CC50: < 20 µM

## AGKEKIRQFLKKKIQEKGKRATIAW [Syn-larvacin-73]
[1]; [3]
  IC50: 0.39 µM
[2]
  THP-1 macrophage CC50: < 20 µM

## AGKEKIRQYLKNEIKKKGRKAWIAW [Syn-safencin-69]
[1]; [3]
  IC50: 3.37 µM
[2]
  THP-1 macrophage CC50: < 20 µM

## AGAQRLTKELLEYLRKFWKIARKAW [Syn-xiamencin-23]
[1]; [3]
  IC50: 1.14 µM
[2]
  THP-1 macrophage CC50: < 20 µM

## AGKETIRQYLKNKWKKKGRKAVIAW [Syn-safencin-43]
[1]; [3]
  IC50: 11.2 µM
[2]
  THP-1 macrophage CC50: < 20 µM

## AGANRLTKELLEYLRKFGKIWRKAW [Syn-xiamencin-40]
[1]; [4]
  IC50: 1.31 µM
[2]
  THP-1 macrophage CC50: < 20 µM

## AGWQRLTLYLKEELRKRGKKAFIAW [Syn-xiamencin-50]
[1]; [4]
  IC50: 3.74 µM
[2]
  THP-1 macrophage CC50: < 20 µM

## AGKETIRQKLKNEIKKKGRKAVIAW [Syn-safencin 7]
[1]; 48 h
  IC50: 0.77 ± 0.08 µM
[2]
  THP-1 macrophage CC50: > 20 µM
[2]; 48 h
  THP-1 macrophage CC50: >20 µM

## AGKETIRQFLKKKIQEGKKRATIAW [Syn-larvacin-4]
[1]; [3]
  IC50: 1.09 µM
[2]
  THP-1 macrophage CC50: below 20 μM

## AGKETIFQRLKKKIQEKGKRATIAW [Syn-larvacin-3]
[1]; [3]
  IC50: 0.36 µM
[2]
  THP-1 macrophage CC50: below 20 μM

## AGKKTIRQYLKNEIKKKGRKAWIAW [Syn-safencin 66]
[1]; 48 h
  IC50: 3.64 ± 0.1 µM
[2]
  THP-1 macrophage CC50: > 20 µM
[2]; 48 h
  THP-1 macrophage CC50: >20 µM

## AWAQRLTKELLEYLRKFGKIARKAW [Syn-xiamencin-31]
[1]; [3]
  IC50: 4.82 µM
[2]
  THP-1 macrophage CC50: < 20 µM

## AWKETIFQRLKKKIQEKGKRATIAW [Syn-larvacin 35]
[1]; 48 h
  IC50: 0.63 ± 0.14 µM
[2]
  THP-1 macrophage CC50: > 20 µM
[2]; 48 h
  THP-1 macrophage CC50: >20 µM

## AGKETIRQFLKKKIQEKKKRATIAW [Syn-larvacin-81]
[1]; [3]
  IC50: 0.26 µM
[2]
  THP-1 macrophage CC50: < 20 µM

## AGRQALTKYLLEELRKRGKKWFIAW [Syn-xiamencin-36]
[1]; [4]
  IC50: 1.52 µM
[2]
  THP-1 macrophage CC50: < 20 µM

## AGKETIRQFLKKKIQEWKKRATIAW [Syn-larvacin-44]
[1]; [3]
  IC50: 0.47 µM
[2]
  THP-1 macrophage CC50: < 20 µM

## AGKEKWRKKLKNEIKKKGRKAVIAW [Syn-safencin-32]
[1]; [3]
  IC50: 4.62 µM
[2]
  THP-1 macrophage CC50: < 20 µM

## WGKETIRKYLKNEIKKKGRKAVIAW [Syn-safencin-14]
[1]; [3]
  IC50: 0.67 µM
[2]
  THP-1 macrophage CC50: below 20 μM

## AGRQALTLELKEYLRKRWKKAFIAW [Syn-xiamencin-19]
[1]; [3]
  IC50: 2.15 µM
[2]
  THP-1 macrophage CC50: < 20 µM
